Our source for the AC50, IC50 and EC50 values is ChEMBL document CHEMBL1201862, “PubChem BioAssay data set” (2004).

Structures are written as SMILES. Calls of active or inactive are those of the source.

The term AC50 denotes the concentration at which the activity in the assay is half-maximal. The IC50 is the concentration that inhibits the measured activity by half. For orientation: EC50 means the midpoint of the concentration-response curve.

One test has as its system HepG2. Briefly: viability loss in HepG2 hepatoma cells – cell-based, cherry-picks, set 2, cytotoxicity control, dose response (AID 687002). The format is functional. As to conditions: Homo sapiens.
Test [1] is described as follows: HEK293 Cytotoxicity Assay Measured in Cell-Based System Using Plate Reader - 7071-01_Inhibitor_Dose_CherryPick_Activity_Set2. The format is functional.
Test [2] can be described thus: HIV-1 AD8 envelope cell-cell fusion blockers – cherry-pick, dose response (AID 652062).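 Note: luciferase signal from cell-cell fusion driven by HIV-1 clade B AD8 Env; potency is for inhibitors of fusion seen as a drop in luminescence.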 The format is functional, cell-based.
Test [3] can be described thus: blockers of HIV-1 envelope-mediated cell-cell fusion – cherry-pick, dose response (AID 652057). The format is functional, cell-based.
The next test deals with HEK293. Description: viability loss in HEK293T cells – cell-based, ATP luminescence, cherry-pick samples, cytotoxicity control, dose response (AID 687005).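 Note: cells exposed to compound for 48 hours.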 The format is functional. The conditions noted are these: Homo sapiens.
Another test deals with HeLa. Description: viability loss in HeLa cells – cell-based, ATP luminescence, cherry-pick samples, cytotoxicity control, dose response (AID 687004). The format is functional. As to conditions: Homo sapiens.
Test [4] concerns the target Metabotropic glutamate receptor 3 (Rattus norvegicus, UniProt P31422). Briefly: inhibitors of rat mGlu3 Galpha15 signaling – TREx293 cells, calcium flux, mGlu3 NAM project, dose response (AID 651840). The format is functional.
Test [5] in a line: human cervical cancer cell viability loss – 24 h, plate reader, dry powder, cytotoxicity control, dose response (AID 686928). The format is functional, cell-based. The conditions noted are these: HeLa.
The target of test [6] is Delta-type opioid receptor (Homo sapiens, UniProt P41143). Briefly: Late-stage results from the probe development effort to identify antagonists of OPRK1: fluorescence-based cell-based dose response OPRD1 counterscreen. The format is functional. In general terms: A counterscreen serves to expose hits that act by an unwanted route or on another target.
Delta-type opioid receptor, sequence (P41143 whole entry): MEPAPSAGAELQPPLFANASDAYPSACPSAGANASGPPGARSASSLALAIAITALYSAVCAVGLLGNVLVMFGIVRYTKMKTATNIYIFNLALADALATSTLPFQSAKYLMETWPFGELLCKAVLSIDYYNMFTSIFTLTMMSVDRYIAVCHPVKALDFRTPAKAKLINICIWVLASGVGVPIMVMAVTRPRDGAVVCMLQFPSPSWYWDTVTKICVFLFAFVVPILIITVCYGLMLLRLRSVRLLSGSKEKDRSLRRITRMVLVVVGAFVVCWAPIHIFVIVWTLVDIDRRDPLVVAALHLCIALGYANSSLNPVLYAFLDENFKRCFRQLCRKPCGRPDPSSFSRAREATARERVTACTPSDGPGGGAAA
In another test the target is Mu-type opioid receptor (Homo sapiens, UniProt P35372). Briefly: Late-stage results from the probe development effort to identify antagonists of OPRK1: luminescence-based cell-based dose response OPRM1 counterscreen. The format is functional.
Mu-type opioid receptor, sequence (P35372 whole entry): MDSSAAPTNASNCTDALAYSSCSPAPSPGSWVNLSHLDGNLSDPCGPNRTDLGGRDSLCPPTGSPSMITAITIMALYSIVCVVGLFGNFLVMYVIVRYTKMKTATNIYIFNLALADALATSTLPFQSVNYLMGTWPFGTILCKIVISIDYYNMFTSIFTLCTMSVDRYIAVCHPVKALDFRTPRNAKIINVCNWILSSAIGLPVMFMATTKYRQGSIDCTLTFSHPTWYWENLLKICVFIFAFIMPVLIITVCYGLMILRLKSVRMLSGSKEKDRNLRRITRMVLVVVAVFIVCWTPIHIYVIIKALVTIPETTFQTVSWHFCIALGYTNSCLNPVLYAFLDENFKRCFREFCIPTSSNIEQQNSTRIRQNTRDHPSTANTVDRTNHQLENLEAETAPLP
In test [7] the target is Potassium channel subfamily K member 3 (Homo sapiens, UniProt O14649). Description: inhibition of human KCNK3 channel flux – CHO cells, FluxOR thallium flux, SAR follow-up (AID 652212). The format is functional.
Potassium channel subfamily K member 3 (Homo sapiens, UniProt O14649), sequence (O14649 whole entry): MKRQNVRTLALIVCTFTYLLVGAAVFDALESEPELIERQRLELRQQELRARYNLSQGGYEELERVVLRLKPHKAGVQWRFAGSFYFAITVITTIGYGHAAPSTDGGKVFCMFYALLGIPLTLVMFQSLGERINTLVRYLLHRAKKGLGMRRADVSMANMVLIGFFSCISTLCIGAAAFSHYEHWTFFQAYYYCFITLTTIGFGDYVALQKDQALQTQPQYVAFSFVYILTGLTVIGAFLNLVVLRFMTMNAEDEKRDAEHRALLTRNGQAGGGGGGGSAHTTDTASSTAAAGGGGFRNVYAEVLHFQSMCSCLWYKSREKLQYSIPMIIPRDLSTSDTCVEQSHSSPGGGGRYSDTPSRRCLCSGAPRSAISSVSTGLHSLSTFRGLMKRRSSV
For test [8], the target named is Potassium channel subfamily K member 9 (Homo sapiens, UniProt Q9NPC2). Description: KCNK9 flux blockade, concentration-response – cell-based, FluxOR thallium flux, selectivity assay for TASK1 inhibitor project, SAR follow-up (AID 652211).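 Note: potency is for inhibitors of the channel.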 The format is functional.
Potassium channel subfamily K member 9, sequence (Q9NPC2 whole entry, the tested form may be a part): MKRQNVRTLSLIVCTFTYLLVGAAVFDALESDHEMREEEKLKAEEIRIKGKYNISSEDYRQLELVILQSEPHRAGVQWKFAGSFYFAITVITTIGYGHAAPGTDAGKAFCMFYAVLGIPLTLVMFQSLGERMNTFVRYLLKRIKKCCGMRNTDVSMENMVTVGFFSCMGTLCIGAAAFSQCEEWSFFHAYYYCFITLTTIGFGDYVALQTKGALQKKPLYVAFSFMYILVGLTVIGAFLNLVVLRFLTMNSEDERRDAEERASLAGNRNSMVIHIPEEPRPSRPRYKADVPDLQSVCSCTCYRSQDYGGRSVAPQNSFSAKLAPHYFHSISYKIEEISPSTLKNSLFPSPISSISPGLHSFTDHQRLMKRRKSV
The target in test [9] is Potassium channel subfamily K member 3 (Rattus norvegicus, UniProt O54912). Briefly: SAR analysis for the identification of selective inhibitors of the two-pore domain potassium channel TASK1(KCNK3):Automated Electrophysiology. The format is functional.
Potassium channel subfamily K member 3 (Rattus norvegicus, UniProt O54912), sequence (O54912 whole entry, the tested form may be a part): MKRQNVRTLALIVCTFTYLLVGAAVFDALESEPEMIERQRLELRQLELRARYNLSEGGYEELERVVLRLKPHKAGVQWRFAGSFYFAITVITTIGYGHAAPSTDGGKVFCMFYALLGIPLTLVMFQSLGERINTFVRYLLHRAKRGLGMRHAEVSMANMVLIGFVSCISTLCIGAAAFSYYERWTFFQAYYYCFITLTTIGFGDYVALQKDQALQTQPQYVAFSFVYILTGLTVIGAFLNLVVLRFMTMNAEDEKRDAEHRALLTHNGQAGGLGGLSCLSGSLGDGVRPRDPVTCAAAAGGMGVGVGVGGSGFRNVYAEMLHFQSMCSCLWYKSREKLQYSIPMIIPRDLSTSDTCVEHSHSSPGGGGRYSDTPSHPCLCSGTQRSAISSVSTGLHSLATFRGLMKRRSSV
Test [10] is described as follows: T. cruzi growth inhibition in host cells, dose response, cell-based, plate reader, dry powder, set 2 (AID 652275). The format is functional.
Test [11] in a line: A Cell-Based Confirmatory Screen for Compounds that Inhibit VEEV, TC-83 (7). The format is functional.
Test [12] concerns the target T1, Trace amine-associated receptor 1 (Homo sapiens, UniProt Q96RJ0).
T1 sequence (Q96RJ0 whole entry): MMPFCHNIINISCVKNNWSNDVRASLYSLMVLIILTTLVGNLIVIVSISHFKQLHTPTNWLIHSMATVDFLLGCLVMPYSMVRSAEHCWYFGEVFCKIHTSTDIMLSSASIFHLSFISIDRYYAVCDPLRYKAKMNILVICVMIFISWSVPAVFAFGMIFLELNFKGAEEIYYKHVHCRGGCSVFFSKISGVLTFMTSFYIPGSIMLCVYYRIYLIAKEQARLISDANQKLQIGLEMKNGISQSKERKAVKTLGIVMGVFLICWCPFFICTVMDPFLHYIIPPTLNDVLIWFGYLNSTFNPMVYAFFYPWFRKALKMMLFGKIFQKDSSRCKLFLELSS
Description: Fluorescence-based cell-based high throughput dose response assay to identify antagonists of the human trace amine associated receptor 1 (TAAR1). The format is functional.

A short description of test [13]: Counterscreen for […] of the human trace amine associated receptor 1 (TAAR1): Fluorescence-based cell-based high throughput dose response assay to identify nonselective Ga16 agonists. The format is functional.
For test [14], the target named is T1, Trace amine-associated receptor 1. Description: Counterscreen for antagonists of the human trace amine associated receptor 1 (hTAAR1): Fluorescence-based cell-based high throughput dose response assay to identify TAAR1 Agonists. The format is functional.
The nature of test [15]: Counterscreen for antagonists of the human trace amine associated receptor 1 (hTAAR1): Fluorescence-based cell-based high throughput dose response assay to identify nonselective Ga16 antagonists. The format is functional.

Metabotropic glutamate receptor 3, sequence (P31422 whole entry): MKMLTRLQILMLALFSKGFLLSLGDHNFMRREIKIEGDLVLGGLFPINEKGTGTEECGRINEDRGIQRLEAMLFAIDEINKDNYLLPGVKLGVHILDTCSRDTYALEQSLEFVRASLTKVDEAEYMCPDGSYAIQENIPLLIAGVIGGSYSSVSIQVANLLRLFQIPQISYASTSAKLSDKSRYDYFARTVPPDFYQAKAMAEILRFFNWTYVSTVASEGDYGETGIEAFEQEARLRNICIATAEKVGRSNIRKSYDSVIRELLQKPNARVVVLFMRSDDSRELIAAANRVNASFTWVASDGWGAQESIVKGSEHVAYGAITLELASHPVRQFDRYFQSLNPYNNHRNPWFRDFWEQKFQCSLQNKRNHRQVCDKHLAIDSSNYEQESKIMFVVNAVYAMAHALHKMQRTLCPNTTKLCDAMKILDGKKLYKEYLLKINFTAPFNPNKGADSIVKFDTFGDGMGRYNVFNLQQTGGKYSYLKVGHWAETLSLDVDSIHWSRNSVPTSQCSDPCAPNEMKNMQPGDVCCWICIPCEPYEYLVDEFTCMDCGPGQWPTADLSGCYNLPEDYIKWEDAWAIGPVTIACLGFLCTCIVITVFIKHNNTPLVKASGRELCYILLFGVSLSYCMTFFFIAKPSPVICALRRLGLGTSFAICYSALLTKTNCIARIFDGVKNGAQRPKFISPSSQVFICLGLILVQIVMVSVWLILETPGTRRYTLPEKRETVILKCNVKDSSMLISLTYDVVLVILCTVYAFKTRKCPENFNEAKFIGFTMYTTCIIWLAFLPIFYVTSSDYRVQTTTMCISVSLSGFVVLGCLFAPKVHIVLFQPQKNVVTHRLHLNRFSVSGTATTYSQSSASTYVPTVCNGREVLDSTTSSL

In the case of `C[C@H](CO)N1C[C@H](C)[C@H](CN(C)Cc2ccccc2F)Oc2cc(C3=CCCC3)ccc2S1(=O)=O`, the AC50 with HepG2 was 19.4 µM (active); in test [1], 18.8 µM (active); in test [2], 24.4 µM (active); in test [3], 22.8 µM (active); with HEK293 it was 18.8 µM (active).
With `Cc1noc(C)c1NC(=O)Nc1ccc2c(c1)C(=O)N(C)[C@@H]1CC[C@H](CC(=O)N[C@H]3CCN(Cc4ccccc4)C3)O[C@@H]1CO2`, the AC50 in test [1] is 29.7 µM (active); in the test with HeLa, > 47 µM (inactive); in the test with HEK293 it was 29.7 µM (active).
For `COc1ccc(C#Cc2ccc(C(=O)N3CCCC(O)(Cc4ccccc4)C3)cc2)cc1` (stereo unspecified), the IC50 in test [4] was 8.87 µM (active).
Consider `O=C(Nc1nnc(-c2ccc3c(c2)OCCO3)o1)C(F)(F)c1ccccc1`, for which the AC50 in test [5] is > 200 µM (inactive).
Regarding `COC(=O)c1cc(Br)cnc1N1CCC(NC2CCCCC2)C1` (stereo unspecified), the IC50 was > 50 µM (inactive) in test [6] and 20 µM (inactive) at Mu-type opioid receptor.
For the molecule `CCOc1ccccc1NC(=O)c1cccc(NC(=O)c2cccc(Cl)c2)c1`, the results for the IC50 in [7], in test [8] and in [9] were 0.039 µM (active), 1.84 µM (active) and 2.86 µM (active), respectively.
Regarding `O=C(CN1CCOCC1)N1CCCCN2[C@@H](CO)[C@H](c3ccc(Br)cc3)[C@@H]2C1`, the AC50 in [10] is 7.96 µM (active).
For `CN1CCN(C)/C(=N/c2ccc(C#N)cc2C(=O)Nc2ccccc2)C1`, the IC50 in test [11] was 0.38 µM (active).
As for `Cc1ccc(/C=N/NC(=O)c2ccccc2OCc2cccc(Br)c2)o1`, the results for the IC50 in test [12] and in [15] were 3.69 µM (active) and > 29.9 µM (inactive), respectively. The EC50 in test [13] and in [14] was > 29.9 µM (inactive) each time.
